# Calls of active or inactive are those of the source. How the calls were made is not given here.
# Tested on: CCRIS mutagenicity, Ames/micronucleus/aberration tests
# Experiment: CCRIS mutagenicity studies
compound,measurement,setting,value
CC1(C)COC1=O,mutagenic call,"Test System: AMES SALMONELLA TYPHIMURIUM, Strain/Indicator: TA98, Metabolic Activation: HAMSTER, LIVER, S-9, AROCLOR 1254, Method: PREINCUBATION",inactive; negative
same,mutagenic call,"Test System: AMES SALMONELLA TYPHIMURIUM, Strain/Indicator: TA98, Metabolic Activation: HAMSTER, LIVER, S-9, AROCLOR 1254, Method: STANDARD PLATE",inactive; negative
same,mutagenic call,"Test System: AMES SALMONELLA TYPHIMURIUM, Strain/Indicator: TA98, Metabolic Activation: HAMSTER, LIVER, S-9, Method: PREINCUBATION",inactive; negative
same,mutagenic call,"Test System: AMES SALMONELLA TYPHIMURIUM, Strain/Indicator: TA98, Metabolic Activation: HAMSTER, LIVER, S-9, Method: STANDARD PLATE",inactive; negative
same,mutagenic call,"Test System: AMES SALMONELLA TYPHIMURIUM, Strain/Indicator: TA98, Metabolic Activation: MOUSE, LIVER, S-9, AROCLOR 1254, Method: PREINCUBATION",inactive; negative
same,mutagenic call,"Test System: AMES SALMONELLA TYPHIMURIUM, Strain/Indicator: TA98, Metabolic Activation: MOUSE, LIVER, S-9, AROCLOR 1254, Method: STANDARD PLATE",inactive; negative
same,mutagenic call,"Test System: AMES SALMONELLA TYPHIMURIUM, Strain/Indicator: TA98, Metabolic Activation: MOUSE, LIVER, S-9, Method: PREINCUBATION",inactive; negative
same,mutagenic call,"Test System: AMES SALMONELLA TYPHIMURIUM, Strain/Indicator: TA98, Metabolic Activation: MOUSE, LIVER, S-9, Method: STANDARD PLATE",inactive; negative
same,mutagenic call,"Test System: AMES SALMONELLA TYPHIMURIUM, Strain/Indicator: TA98, Metabolic Activation: NONE, Method: PREINCUBATION",inactive; negative
same,mutagenic call,"Test System: AMES SALMONELLA TYPHIMURIUM, Strain/Indicator: TA98, Metabolic Activation: NONE, Method: STANDARD PLATE",inactive; negative
same,mutagenic call,"Test System: AMES SALMONELLA TYPHIMURIUM, Strain/Indicator: TA98, Metabolic Activation: RAT, LIVER, S-9, AROCLOR 1254, Method: PREINCUBATION",inactive; negative
same,mutagenic call,"Test System: AMES SALMONELLA TYPHIMURIUM, Strain/Indicator: TA98, Metabolic Activation: RAT, LIVER, S-9, AROCLOR 1254, Method: STANDARD PLATE",inactive; negative
same,mutagenic call,"Test System: AMES SALMONELLA TYPHIMURIUM, Strain/Indicator: TA98, Metabolic Activation: RAT, LIVER, S-9, Method: PREINCUBATION",inactive; negative
same,mutagenic call,"Test System: AMES SALMONELLA TYPHIMURIUM, Strain/Indicator: TA98, Metabolic Activation: RAT, LIVER, S-9, Method: STANDARD PLATE",inactive; negative
same,mutagenic call,"Test System: AMES SALMONELLA TYPHIMURIUM, Strain/Indicator: TA100, Metabolic Activation: HAMSTER, LIVER, S-9, AROCLOR 1254, Method: STANDARD PLATE",active; positive
same,mutagenic call,"Test System: AMES SALMONELLA TYPHIMURIUM, Strain/Indicator: TA100, Metabolic Activation: HAMSTER, LIVER, S-9, Method: STANDARD PLATE",active; positive
same,mutagenic call,"Test System: AMES SALMONELLA TYPHIMURIUM, Strain/Indicator: TA100, Metabolic Activation: MOUSE, LIVER, S-9, AROCLOR 1254, Method: STANDARD PLATE",active; positive
same,mutagenic call,"Test System: AMES SALMONELLA TYPHIMURIUM, Strain/Indicator: TA100, Metabolic Activation: MOUSE, LIVER, S-9, Method: STANDARD PLATE",active; positive
same,mutagenic call,"Test System: AMES SALMONELLA TYPHIMURIUM, Strain/Indicator: TA100, Metabolic Activation: NONE, Method: STANDARD PLATE",active; positive
same,mutagenic call,"Test System: AMES SALMONELLA TYPHIMURIUM, Strain/Indicator: TA100, Metabolic Activation: RAT, LIVER, S-9, AROCLOR 1254, Method: STANDARD PLATE",active; positive
same,mutagenic call,"Test System: AMES SALMONELLA TYPHIMURIUM, Strain/Indicator: TA100, Metabolic Activation: RAT, LIVER, S-9, Method: STANDARD PLATE",active; positive
same,mutagenic call,"Test System: AMES SALMONELLA TYPHIMURIUM, Strain/Indicator: TA1535, Metabolic Activation: HAMSTER, LIVER, S-9, AROCLOR 1254, Method: PREINCUBATION",inactive; negative
same,mutagenic call,"Test System: AMES SALMONELLA TYPHIMURIUM, Strain/Indicator: TA1535, Metabolic Activation: HAMSTER, LIVER, S-9, Method: PREINCUBATION",inactive; negative
same,mutagenic call,"Test System: AMES SALMONELLA TYPHIMURIUM, Strain/Indicator: TA1535, Metabolic Activation: MOUSE, LIVER, S-9, AROCLOR 1254, Method: PREINCUBATION",inactive; negative
same,mutagenic call,"Test System: AMES SALMONELLA TYPHIMURIUM, Strain/Indicator: TA1535, Metabolic Activation: MOUSE, LIVER, S-9, Method: PREINCUBATION",inactive; negative
same,mutagenic call,"Test System: AMES SALMONELLA TYPHIMURIUM, Strain/Indicator: TA1535, Metabolic Activation: NONE, Method: PREINCUBATION",inactive; negative
same,mutagenic call,"Test System: AMES SALMONELLA TYPHIMURIUM, Strain/Indicator: TA1535, Metabolic Activation: RAT, LIVER, S-9, AROCLOR 1254, Method: PREINCUBATION",inactive; negative
same,mutagenic call,"Test System: AMES SALMONELLA TYPHIMURIUM, Strain/Indicator: TA1535, Metabolic Activation: RAT, LIVER, S-9, Method: PREINCUBATION",inactive; negative
same,mutagenic call,"Test System: AMES SALMONELLA TYPHIMURIUM, Strain/Indicator: TA1537, Metabolic Activation: HAMSTER, LIVER, S-9, AROCLOR 1254, Method: PREINCUBATION",inactive; negative
same,mutagenic call,"Test System: AMES SALMONELLA TYPHIMURIUM, Strain/Indicator: TA1537, Metabolic Activation: HAMSTER, LIVER, S-9, AROCLOR 1254, Method: STANDARD PLATE",inactive; negative
same,mutagenic call,"Test System: AMES SALMONELLA TYPHIMURIUM, Strain/Indicator: TA1537, Metabolic Activation: HAMSTER, LIVER, S-9, Method: PREINCUBATION",inactive; negative
same,mutagenic call,"Test System: AMES SALMONELLA TYPHIMURIUM, Strain/Indicator: TA1537, Metabolic Activation: HAMSTER, LIVER, S-9, Method: STANDARD PLATE",inactive; negative
same,mutagenic call,"Test System: AMES SALMONELLA TYPHIMURIUM, Strain/Indicator: TA1537, Metabolic Activation: MOUSE, LIVER, S-9, AROCLOR 1254, Method: PREINCUBATION",inactive; negative
same,mutagenic call,"Test System: AMES SALMONELLA TYPHIMURIUM, Strain/Indicator: TA1537, Metabolic Activation: MOUSE, LIVER, S-9, AROCLOR 1254, Method: STANDARD PLATE",inactive; negative
same,mutagenic call,"Test System: AMES SALMONELLA TYPHIMURIUM, Strain/Indicator: TA1537, Metabolic Activation: MOUSE, LIVER, S-9, Method: PREINCUBATION",inactive; negative
same,mutagenic call,"Test System: AMES SALMONELLA TYPHIMURIUM, Strain/Indicator: TA1537, Metabolic Activation: MOUSE, LIVER, S-9, Method: STANDARD PLATE",inactive; negative
same,mutagenic call,"Test System: AMES SALMONELLA TYPHIMURIUM, Strain/Indicator: TA1537, Metabolic Activation: NONE, Method: PREINCUBATION",inactive; negative
same,mutagenic call,"Test System: AMES SALMONELLA TYPHIMURIUM, Strain/Indicator: TA1537, Metabolic Activation: NONE, Method: STANDARD PLATE",inactive; negative
same,mutagenic call,"Test System: AMES SALMONELLA TYPHIMURIUM, Strain/Indicator: TA1537, Metabolic Activation: RAT, LIVER, S-9, AROCLOR 1254, Method: PREINCUBATION",inactive; negative
same,mutagenic call,"Test System: AMES SALMONELLA TYPHIMURIUM, Strain/Indicator: TA1537, Metabolic Activation: RAT, LIVER, S-9, AROCLOR 1254, Method: STANDARD PLATE",inactive; negative
same,mutagenic call,"Test System: AMES SALMONELLA TYPHIMURIUM, Strain/Indicator: TA1537, Metabolic Activation: RAT, LIVER, S-9, Method: PREINCUBATION",inactive; negative
same,mutagenic call,"Test System: AMES SALMONELLA TYPHIMURIUM, Strain/Indicator: TA1537, Metabolic Activation: RAT, LIVER, S-9, Method: STANDARD PLATE",inactive; negative
same,mutagenic call,"Test System: AMES SALMONELLA TYPHIMURIUM, Strain/Indicator: TA1538, Metabolic Activation: HAMSTER, LIVER, S-9, AROCLOR 1254, Method: PREINCUBATION",inactive; negative
same,mutagenic call,"Test System: AMES SALMONELLA TYPHIMURIUM, Strain/Indicator: TA1538, Metabolic Activation: HAMSTER, LIVER, S-9, AROCLOR 1254, Method: STANDARD PLATE",inactive; negative
same,mutagenic call,"Test System: AMES SALMONELLA TYPHIMURIUM, Strain/Indicator: TA1538, Metabolic Activation: HAMSTER, LIVER, S-9, Method: PREINCUBATION",inactive; negative
same,mutagenic call,"Test System: AMES SALMONELLA TYPHIMURIUM, Strain/Indicator: TA1538, Metabolic Activation: HAMSTER, LIVER, S-9, Method: STANDARD PLATE",inactive; negative
same,mutagenic call,"Test System: AMES SALMONELLA TYPHIMURIUM, Strain/Indicator: TA1538, Metabolic Activation: MOUSE, LIVER, S-9, AROCLOR 1254, Method: PREINCUBATION",inactive; negative
same,mutagenic call,"Test System: AMES SALMONELLA TYPHIMURIUM, Strain/Indicator: TA1538, Metabolic Activation: MOUSE, LIVER, S-9, AROCLOR 1254, Method: STANDARD PLATE",inactive; negative
same,mutagenic call,"Test System: AMES SALMONELLA TYPHIMURIUM, Strain/Indicator: TA1538, Metabolic Activation: MOUSE, LIVER, S-9, Method: PREINCUBATION",inactive; negative
same,mutagenic call,"Test System: AMES SALMONELLA TYPHIMURIUM, Strain/Indicator: TA1538, Metabolic Activation: MOUSE, LIVER, S-9, Method: STANDARD PLATE",inactive; negative
same,mutagenic call,"Test System: AMES SALMONELLA TYPHIMURIUM, Strain/Indicator: TA1538, Metabolic Activation: NONE, Method: PREINCUBATION",inactive; negative
same,mutagenic call,"Test System: AMES SALMONELLA TYPHIMURIUM, Strain/Indicator: TA1538, Metabolic Activation: NONE, Method: STANDARD PLATE",inactive; negative
same,mutagenic call,"Test System: AMES SALMONELLA TYPHIMURIUM, Strain/Indicator: TA1538, Metabolic Activation: RAT, LIVER, S-9, AROCLOR 1254, Method: PREINCUBATION",inactive; negative
same,mutagenic call,"Test System: AMES SALMONELLA TYPHIMURIUM, Strain/Indicator: TA1538, Metabolic Activation: RAT, LIVER, S-9, AROCLOR 1254, Method: STANDARD PLATE",inactive; negative
same,mutagenic call,"Test System: AMES SALMONELLA TYPHIMURIUM, Strain/Indicator: TA1538, Metabolic Activation: RAT, LIVER, S-9, Method: PREINCUBATION",inactive; negative
same,mutagenic call,"Test System: AMES SALMONELLA TYPHIMURIUM, Strain/Indicator: TA1538, Metabolic Activation: RAT, LIVER, S-9, Method: STANDARD PLATE",inactive; negative
same,mutagenic call,"Test System: E. COLI, Strain/Indicator: WP2 UVRA, Metabolic Activation: HAMSTER, LIVER, S-9, AROCLOR 1254, Method: PREINCUBATION",active; positive
same,mutagenic call,"Test System: E. COLI, Strain/Indicator: WP2 UVRA, Metabolic Activation: HAMSTER, LIVER, S-9, Method: PREINCUBATION",active; positive
same,mutagenic call,"Test System: E. COLI, Strain/Indicator: WP2 UVRA, Metabolic Activation: MOUSE, LIVER, S-9, AROCLOR 1254, Method: PREINCUBATION",active; positive
same,mutagenic call,"Test System: E. COLI, Strain/Indicator: WP2 UVRA, Metabolic Activation: NONE, Method: PREINCUBATION",active; positive
same,mutagenic call,"Test System: E. COLI, Strain/Indicator: WP2 UVRA, Metabolic Activation: RAT, LIVER, S-9, AROCLOR 1254, Method: PREINCUBATION",active; positive
same,mutagenic call,"Test System: E. COLI, Strain/Indicator: WP2 UVRA, Metabolic Activation: RAT, LIVER, S-9, Method: PREINCUBATION",active; positive

# From PubChem BioAssay AID1259407 (Chemical Carcinogenesis Research Information System (CCRIS), 2018)
